From ChEMBL document CHEMBL3396978, “Design, synthesis of new β-carboline derivatives and their selective anti-HIV-2 activity” (Bioorg Med Chem Lett, 2015)
The source made the active and inactive calls. The rule behind the calls is not given here.

Legend:
[1] = target: Reverse transcriptase (Human immunodeficiency virus 2) (UniProt Q06347); experiment: Inhibition of HIV2 reverse transcriptase using poly(A).oligo(dT) template/primer after 30 mins at 200 ug/mL
[2] = Selectivity index, ratio of CC50 for mock-infected human […] cells to EC50 for HIV2 ROD infected in human MT4 cells; format: toxicity, cell-based; settings: read-out: Ratio CC50/EC50
[3] = test system: Human immunodeficiency virus 2; experiment: Antiviral activity against HIV2 ROD infected in human MT4 cells assessed as protection against virus-induced cytotoxicity after 5 days by MTT assay; format: functional, organism-based; settings: Human immunodeficiency virus 2, ISOLATE ROD, MT4, 120 h
[4] = test system: Human immunodeficiency virus 1; experiment: Antiviral activity against HIV1 3B infected infected in human MT4 cells assessed as protection against virus-induced cytotoxicity after 5 days by MTT assay; format: functional, organism-based; settings: Human immunodeficiency virus 1, 3B, MT4, 120 h
[5] = target: Reverse transcriptase (Human immunodeficiency virus 2) (UniProt Q06347); experiment: Inhibition of HIV2 reverse transcriptase using poly(C).oligo(dG) template/primer after 30 mins at 200 ug/mL
HeLa = experiment: Cytotoxicity against mock-infected human […] cells by MTT assay; format: functional
[6] = test system: Human immunodeficiency virus; experiment: Antiviral activity against HIV; format: functional, organism-based; settings: Human immunodeficiency virus 1
[7] = test system: Human immunodeficiency virus 1; experiment: Antiviral activity against HIV1; format: functional, organism-based
[8] = test system: Human immunodeficiency virus 2; experiment: Antiviral activity against HIV2; format: functional, organism-based

Sequence of Reverse transcriptase (Human immunodeficiency virus 2) (Q06347 as listed by the source): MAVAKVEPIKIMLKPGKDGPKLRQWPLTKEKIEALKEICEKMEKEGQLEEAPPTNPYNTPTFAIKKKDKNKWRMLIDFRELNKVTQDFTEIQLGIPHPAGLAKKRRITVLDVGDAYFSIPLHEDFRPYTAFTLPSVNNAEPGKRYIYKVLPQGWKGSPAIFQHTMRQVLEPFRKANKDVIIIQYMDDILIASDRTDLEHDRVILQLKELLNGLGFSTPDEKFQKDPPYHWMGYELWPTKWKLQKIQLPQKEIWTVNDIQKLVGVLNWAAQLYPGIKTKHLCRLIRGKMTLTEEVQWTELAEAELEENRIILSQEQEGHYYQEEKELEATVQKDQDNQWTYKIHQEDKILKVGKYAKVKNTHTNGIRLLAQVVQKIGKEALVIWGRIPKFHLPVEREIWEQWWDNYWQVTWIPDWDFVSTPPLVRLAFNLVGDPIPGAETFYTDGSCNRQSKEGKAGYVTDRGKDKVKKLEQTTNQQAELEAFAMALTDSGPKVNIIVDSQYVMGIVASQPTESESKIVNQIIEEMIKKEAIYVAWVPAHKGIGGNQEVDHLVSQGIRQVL

Structure (SMILES) | inhibition [1] | selectivity ratio [2] | EC50 [3] | EC50 [4] | inhibition [5] | CC50 (HeLa) | EC50 [6] | EC50 [7] | EC50 [8]
Cn1c2ccccc2c2cc(C(=O)N3CCN(c4ccccc4F)CC3)nc(-c3ccccc3)c21 | inactive | 9 | 5.4 µM | > 50.6 µM | inactive | 50.6 µM | – | – | –
Cn1c2ccccc2c2cc(C(=O)N3CCN(c4ccccc4Cl)CC3)nc(-c3ccccc3)c21 | – | < 1 | > 23.6 µM | > 23.6 µM | – | 23.6 µM | – | – | –
Cn1c2ccccc2c2cc(C(=O)N3CCN(c4ccncc4)CC3)nc(-c3ccccc3)c21 | – | < 1 | > 4.02 µM | > 4.02 µM | – | 4.02 µM | – | – | –
O=C(O)c1cc2c([nH]c3ccccc32)c(-c2ccc(CO)o2)n1 [FLAZINE] | – | – | – | – | – | – | 2.36 µM | – | –
COc1cccc(N2CCN(C(=O)c3cc4c5ccccc5n(C)c4c(-c4ccccc4)n3)CC2)c1 | – | < 1 | > 134 µM | > 134 µM | – | 134 µM | – | – | –
COc1ccccc1N1CCN(C(=O)c2cc3c4ccccc4n(C)c3c(-c3ccccc3)n2)CC1 | inactive | 8 | 3.2 µM | > 25.3 µM | inactive | 25.3 µM | – | – | –
Cn1c2ccccc2c2cc(C(=O)N3CCN(c4ccc(F)cc4)CC3)nc(-c3ccccc3)c21 | inactive | > 72 | 2.6 µM | > 189 µM | inactive | > 189 µM | – | – | –
Cn1c2ccccc2c2cc(C(=O)N3CCN(c4ccc(Cl)cc4)CC3)nc(-c3ccccc3)c21 | – | – | > 208 µM | > 208 µM | – | > 208 µM | – | – | –
Cc1ccccc1N1CCN(C(=O)c2cc3c4ccccc4n(C)c3c(-c3ccccc3)n2)CC1 | – | < 1 | > 16.9 µM | > 16.9 µM | – | 16.9 µM | – | – | –
Cc1ccnc2c1NC(=O)c1cccnc1N2C1CC1 [NEVIRAPINE] | – | – | > 4 µM | 0.027 µM | – | > 4 µM | – | – | –
Cc1ccc(N2CCN(C(=O)c3cc4c5ccccc5n(C)c4c(-c4ccccc4)n3)CC2)cc1 | inactive | 9 | 3.3 µM | > 29.6 µM | inactive | 29.6 µM | – | – | –
Cn1c2ccccc2c2cc(C(=O)N3CCN(c4ccc([N+](=O)[O-])cc4)CC3)nc(-c3ccccc3)c21 | – | – | > 204 µM | > 204 µM | – | > 204 µM | – | – | –
Nc1ccn([C@@H]2CS[C@H](CO)O2)c(=O)n1 [LAMIVUDINE] | – | > 5.6 | 3.56 µM | 0.89 µM | – | > 20 µM | – | – | –
Cn1c2ccccc2c2cc(C(=O)N3CCN(c4ccccn4)CC3)nc(-c3ccccc3)c21 | – | < 1 | > 19.2 µM | > 19.2 µM | – | 19.2 µM | – | – | –
Cn1c2ccccc2c2cc(C(=O)N3CCN(c4cccc(Cl)c4Cl)CC3)nc(-c3ccccc3)c21 | – | < 1 | > 63.9 µM | > 63.9 µM | – | 63.9 µM | – | – | –
Cn1c2ccccc2c2cc(C(=O)N3CCN(c4ccccc4)CC3)nc(-c3ccccc3)c21 | inactive | > 8 | 29.4 µM | > 224 µM | inactive | > 224 µM | – | – | –
NC(=O)c1cc2c([nH]c3ccccc32)c(-c2ccc(CO)o2)n1 | – | – | – | – | – | – | – | 0.38 µM | 0.57 µM
COc1ccc(N2CCN(C(=O)c3cc4c5ccccc5n(C)c4c(-c4ccccc4)n3)CC2)cc1 | – | – | > 210 µM | > 210 µM | – | > 210 µM | – | – | –
Cn1c2ccccc2c2cc(C(=O)N3CCN(Cc4ccccc4)CC3)nc(-c3ccccc3)c21 | – | < 1 | > 21.7 µM | > 21.7 µM | – | 21.7 µM | – | – | –
Cc1cn([C@H]2C[C@H](N=[N+]=[N-])[C@@H](CO)O2)c(=O)[nH]c1=O [ZIDOVUDINE] | – | > 12500 | 0.0016 µM | 0.0019 µM | – | > 25 µM | – | – | –
Cn1c2ccccc2c2cc(C(=O)N3CCN(c4cccc(Cl)c4)CC3)nc(-c3ccccc3)c21 | – | < 1 | > 111 µM | > 111 µM | – | 111 µM | – | – | –
O=c1[nH]cnc2c1ncn2[C@H]1CC[C@@H](CO)O1 [DIDANOSINE] | – | > 21.7 | 2.27 µM | 2.56 µM | – | > 50 µM | – | – | –
